Read-outs that look alike come from different tables or passages of the source. Some results are limits rather than exact numbers.

The results in this text go back to US12539292B2, “BRM targeting compounds and associated methods of use” (Arvinas Operations, Inc., priority 2018, dated 2026).

The target of the assay is T1, BRM (Homo sapiens, UniProt P51531).
T1 construct: In-Cell Western Screen of BRM Degradation in SW1573 Cells; endogenous in cells; host or cells: SW1573
In words: In-cell Western screen of BRM degradation in SW1573 cells (Dmax and DC50). To be noted: for Dmax: SW1573, % degraded, when tested at the top concentration of between 0.3 and 10 μM, read-out: BRM Dmax (%); for DC50: read-out: BRM DC50. It is filed as cell-based. The essentials:
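Near-infrared imaging on a LI-COR Odyssey (800 and 680 nm channels) quantifies BRM remaining in fixed SW1573 cells. Cells are dosed for 18-20 h at 0.1% final DMSO, and degradation is expressed as Dmax and DC50.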

T1 sequence (P51531 whole entry): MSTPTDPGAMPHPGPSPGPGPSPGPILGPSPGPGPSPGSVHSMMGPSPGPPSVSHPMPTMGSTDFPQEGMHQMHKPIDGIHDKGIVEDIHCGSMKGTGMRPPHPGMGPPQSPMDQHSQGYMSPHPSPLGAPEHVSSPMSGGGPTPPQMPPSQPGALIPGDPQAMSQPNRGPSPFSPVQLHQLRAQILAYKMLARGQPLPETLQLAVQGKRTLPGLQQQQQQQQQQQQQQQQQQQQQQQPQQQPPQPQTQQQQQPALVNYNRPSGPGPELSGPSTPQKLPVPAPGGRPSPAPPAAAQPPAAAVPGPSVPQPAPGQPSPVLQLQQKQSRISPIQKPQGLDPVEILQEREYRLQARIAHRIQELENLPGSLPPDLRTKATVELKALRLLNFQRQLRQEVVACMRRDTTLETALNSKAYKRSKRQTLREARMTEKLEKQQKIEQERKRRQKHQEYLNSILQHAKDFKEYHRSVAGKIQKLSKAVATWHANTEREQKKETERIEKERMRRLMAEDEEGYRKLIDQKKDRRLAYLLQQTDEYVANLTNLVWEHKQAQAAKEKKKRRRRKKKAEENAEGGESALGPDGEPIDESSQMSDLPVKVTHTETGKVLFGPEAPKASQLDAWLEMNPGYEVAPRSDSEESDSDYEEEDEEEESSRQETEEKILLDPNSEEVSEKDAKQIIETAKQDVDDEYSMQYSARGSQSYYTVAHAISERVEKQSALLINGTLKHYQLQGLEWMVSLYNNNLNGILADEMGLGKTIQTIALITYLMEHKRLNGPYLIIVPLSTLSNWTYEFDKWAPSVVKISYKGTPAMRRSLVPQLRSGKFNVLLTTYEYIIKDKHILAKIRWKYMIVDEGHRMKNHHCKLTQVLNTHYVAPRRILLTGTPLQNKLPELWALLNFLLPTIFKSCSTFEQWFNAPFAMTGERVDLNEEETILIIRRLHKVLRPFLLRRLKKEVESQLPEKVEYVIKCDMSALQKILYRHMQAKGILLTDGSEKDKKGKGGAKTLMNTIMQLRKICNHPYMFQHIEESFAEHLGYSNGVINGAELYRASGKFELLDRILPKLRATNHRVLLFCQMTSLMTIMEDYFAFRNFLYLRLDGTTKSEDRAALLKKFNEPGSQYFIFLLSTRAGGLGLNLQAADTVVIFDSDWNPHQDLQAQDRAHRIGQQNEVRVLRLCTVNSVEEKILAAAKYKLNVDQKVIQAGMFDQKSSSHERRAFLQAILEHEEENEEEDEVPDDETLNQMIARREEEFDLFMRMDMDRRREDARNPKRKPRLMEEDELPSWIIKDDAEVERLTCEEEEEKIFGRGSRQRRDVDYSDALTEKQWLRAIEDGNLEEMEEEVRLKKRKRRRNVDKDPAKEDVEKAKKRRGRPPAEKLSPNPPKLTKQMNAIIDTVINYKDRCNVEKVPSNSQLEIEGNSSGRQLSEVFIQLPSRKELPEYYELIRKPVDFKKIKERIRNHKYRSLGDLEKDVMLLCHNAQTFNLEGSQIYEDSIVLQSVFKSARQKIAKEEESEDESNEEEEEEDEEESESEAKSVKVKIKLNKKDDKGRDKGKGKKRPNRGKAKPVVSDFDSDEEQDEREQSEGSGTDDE

As to `Cc1ncsc1-c1ccc([C@H](C)NC(=O)[C@@H]2C[C@@H](O)CN2C(=O)[C@@H](c2cc(OCCN[C@H]3CC[C@H](O[C@H]4C[C@H](Oc5cc(N6C7CCC6CN(c6cc(-c8ccccc8O)nnc6N)C7)ccn5)C4)CC3)no2)C(C)C)cn1` [compound 396, (2S,4R)-1-((2R)-2-(3-(2-(((1R,4R)-4-((1r,3R)-3-((4-(3-(3-amino-6-(2-hydroxyphenyl)pyridazin-4-yl)-3,8-diazabicyclo[3.2.1]octan-8-yl)pyridin-2-yl)oxy)cyclobutoxy)cyclohexyl)amino)ethoxy)isoxazol-5-yl)-3-methylbutanoyl)-4-hydroxy-N-((S)-1-(6-(4-methylthiazol-5-yl)pyridin-3-yl)ethyl)pyrrolidine-2-carboxamide], the Dmax (in general, the greatest extent of degradation seen) is above 75%. Further, the half-maximal degradation concentration (DC50) (in general, the concentration giving 50% degradation) (target protein degradation) was 2.5 to 10 nM.

With `Cc1nccn1-c1ccc([C@H](C)NC(=O)[C@@H]2C[C@@H](O)CN2C(=O)[C@H](c2cc(OCCN3CCC(O[C@H]4C[C@H](Oc5cc(N6C7CCC6CN(c6cc(-c8ccccc8O)nnc6N)C7)ccn5)C4)CC3)no2)C(C)C)cn1` [compound 397, (2S,4R)-1-((2S)-2-(3-(2-(4-((1r,3S)-3-((4-(3-(3-amino-6-(2-hydroxyphenyl)pyridazin-4-yl)-3,8-diazabicyclo[3.2.1]octan-8-yl)pyridin-2-yl)oxy)cyclobutoxy)piperidin-1-yl)cthoxy)isoxazol-5-yl)-3-methylbutanoyl)-4-hydroxy-N-((S)-1-(6-(2-methyl-1H-imidazol-1-yl)pyridin-3-yl)ethyl)pyrrolidine-2-carboxamide], the DC50 (target protein degradation) is above 30 nM.

With `Cc1nccn1-c1ccc([C@H](C)NC(=O)[C@@H]2C[C@@H](O)CN2C(=O)[C@@H](c2cc(OCCN3CCC(O[C@H]4C[C@H](Oc5cc(N6C7CCC6CN(c6cc(-c8ccccc8O)nnc6N)C7)ccn5)C4)CC3)no2)C(C)C)cn1` [compound 398, (2S,4R)-1-((2R)-2-(3-(2-(4-((1r,3R)-3-((4-(3-(3-amino-6-(2-hydroxyphenyl)pyridazin-4-yl)-3,8-diazabicyclo[3.2.1]octan-8-yl)pyridin-2-yl)oxy)cyclobutoxy)piperidin-1-yl)ethoxy)isoxazol-5-yl)-3-methylbutanoyl)-4-hydroxy-N-((S)-1-(6-(2-methyl-1H-imidazol-1-yl)pyridin-3-yl)ethyl)pyrrolidine-2-carboxamide], the Dmax was above 75%. For the same molecule, the half-maximal degradation concentration (DC50) (target protein degradation) is below 2.5 nM.

With `Cc1ncsc1-c1ccc([C@H](C)NC(=O)[C@@H]2C[C@@H](O)CN2C(=O)[C@H](c2cc(OCC#Cc3ncc(O[C@H]4C[C@H](Oc5cc(N6C7CCC6CN(c6cc(-c8ccccc8O)nnc6N)C7)ccn5)C4)cn3)no2)C(C)C)cn1` [compound 399, (2S,4R)-1-((2S)-2-(3-((3-(5-((1r,3S)-3-((4-(3-(3-amino-6-(2-hydroxyphenyl)pyridazin-4-yl)-3,8-diazabicyclo[3.2.1]octan-8-yl)pyridin-2-yl)oxy)cyclobutoxy)pyrimidin-2-yl)prop-2-yn-1-yl)oxy)isoxazol-5-yl)-3-methylbutanoyl)-4-hydroxy-N-((S)-1-(6-(4-methylthiazol-5-yl)pyridin-3-yl)ethyl)pyrrolidine-2-carboxamide], the DC50 (target protein degradation) is above 30 nM.

Take `Cc1ncsc1-c1ccc([C@H](C)NC(=O)[C@@H]2C[C@@H](O)CN2C(=O)[C@@H](c2cc(OCC#Cc3ncc(O[C@H]4C[C@H](Oc5cc(N6C7CCC6CN(c6cc(-c8ccccc8O)nnc6N)C7)ccn5)C4)cn3)no2)C(C)C)cn1` [compound 400, (2S,4R)-1-((2R)-2-(3-((3-(5-((1r,3R)-3-((4-(3-(3-amino-6-(2-hydroxyphenyl)pyridazin-4-yl)-3,8-diazabicyclo[3.2.1]octan-8-yl)pyridin-2-yl)oxy)cyclobutoxy)pyrimidin-2-yl)prop-2-yn-1-yl)oxy)isoxazol-5-yl)-3-methylbutanoyl)-4-hydroxy-N-((S)-1-(6-(4-methylthiazol-5-yl)pyridin-3-yl)ethyl)pyrrolidine-2-carboxamide]: the Dmax is above 75%. Also, where the note is “target protein degradation”, the DC50 is below 2.5 nM.

As for `Cc1ncsc1-c1ccc([C@H](C)NC(=O)[C@@H]2C[C@@H](O)CN2C(=O)[C@H](c2cc(N3CCN(CCN4CCC(O[C@H]5C[C@H](Oc6cc(N7C8CCC7CN(c7cc(-c9ccccc9O)nnc7N)C8)ccn6)C5)CC4)CC3)no2)C(C)C)cn1` [compound 401, (2S,4R)-1-((2S)-2-(3-(4-(2-(4-((1r,3r)-3-((4-(3-(3-amino-6-(2-hydroxyphenyl)pyridazin-4-yl)-3,8-diazabicyclo[3.2.1]octan-8-yl)pyridin-2-yl)oxy)cyclobutoxy)piperidin-1-yl)ethyl)piperazin-1-yl)isoxazol-5-yl)-3-methylbutanoyl)-4-hydroxy-N-((S)-1-(6-(4-methylthiazol-5-yl)pyridin-3-yl)ethyl)pyrrolidine-2-carboxamide], under “degradation of BRM”, the DC50 is above 30 nM.

For the molecule `Cc1ncsc1-c1ccc([C@H](C)NC(=O)[C@@H]2C[C@@H](O)CN2C(=O)[C@@H](c2cc(N3CCN(CCN4CCC(O[C@H]5C[C@H](Oc6cc(N7C8CCC7CN(c7cc(-c9ccccc9O)nnc7N)C8)ccn6)C5)CC4)CC3)no2)C(C)C)cn1` [compound 402, (2S,4R)-1-((2R)-2-(3-(4-(2-(4-((1r,3r)-3-((4-(3-(3-amino-6-(2-hydroxyphenyl)pyridazin-4-yl)-3,8-diazabicyclo[3.2.1]octan-8-yl)pyridin-2-yl)oxy)cyclobutoxy)piperidin-1-yl)ethyl)piperazin-1-yl)isoxazol-5-yl)-3-methylbutanoyl)-4-hydroxy-N-((S)-1-(6-(4-methylthiazol-5-yl)pyridin-3-yl)ethyl)pyrrolidine-2-carboxamide], the Dmax was above 75%. For the same molecule, where the note is “degradation of BRM”, the DC50 was below 2.5 nM.

With `Cc1ncsc1-c1ccc([C@H](C)NC(=O)[C@@H]2C[C@@H](O)CN2C(=O)[C@H](c2cc(N3CCC(O[C@H]4C[C@H](Oc5cc(N6C7CCC6CN(c6cc(-c8ccccc8O)nnc6N)C7)ccn5)C4)CC3)no2)C(C)C)cc1` [compound 403, (2S,4R)-1-((2S)-2-(3-(4-((1r,3S)-3-((4-(3-(3-amino-6-(2-hydroxyphenyl)pyridazin-4-yl)-3,8-diazabicyclo[3.2.1]octan-8-yl)pyridin-2-yl)oxy)cyclobutoxy)piperidin-1-yl)isoxazol-5-yl)-3-methylbutanoyl)-4-hydroxy-N-((S)-1-(4-(4-methylthiazol-5-yl)phenyl)ethyl)pyrrolidine-2-carboxamide], the Dmax is above 75%. Moreover, the DC50 (degradation of BRM) lay within 2.5 to 10 nM.

As for `Cc1ncsc1-c1ccc([C@H](C)NC(=O)[C@@H]2C[C@@H](O)CN2C(=O)[C@@H](c2cc(N3CCC(O[C@H]4C[C@H](Oc5cc(N6C7CCC6CN(c6cc(-c8ccccc8O)nnc6N)C7)ccn5)C4)CC3)no2)C(C)C)cc1` [compound 404, (2S,4R)-1-((2R)-2-(3-(4-((1r,3R)-3-((4-(3-(3-amino-6-(2-hydroxyphenyl)pyridazin-4-yl)-3,8-diazabicyclo[3.2.1]octan-8-yl)pyridin-2-yl)oxy)cyclobutoxy)piperidin-1-yl)isoxazol-5-yl)-3-methylbutanoyl)-4-hydroxy-N-((S)-1-(4-(4-methylthiazol-5-yl)phenyl)ethyl)pyrrolidine-2-carboxamide], the Dmax was above 75%. Besides, under “degradation of BRM”, the DC50 is below 2.5 nM.

With `Cc1ncsc1-c1ccc([C@H](C)NC(=O)[C@@H]2C[C@@H](O)CN2C(=O)[C@@H](c2cc(OCCN3CCC(C(=O)N4CC(Oc5cc(N6C7CCC6CN(c6cc(-c8ccccc8O)nnc6N)C7)ccn5)C4)CC3)no2)C(C)C)cc1` [compound 405, (2S,4R)-1-((2R)-2-(3-(2-(4-(3-((4-(3-(3-amino-6-(2-hydroxyphenyl)pyridazin-4-yl)-3,8-diazabicyclo[3.2.1]octan-8-yl)pyridin-2-yl)oxy)azetidine-1-carbonyl)piperidin-1-yl)ethoxy)isoxazol-5-yl)-3-methylbutanoyl)-4-hydroxy-N-((S)-1-(4-(4-methylthiazol-5-yl)phenyl)ethyl)pyrrolidine-2-carboxamide], the maximal degradation (Dmax) was above 75%. For the same molecule, the DC50 (degradation of BRM) was below 2.5 nM.

On to `Cc1ncsc1-c1ccc([C@H](C)NC(=O)[C@@H]2C[C@@H](O)CN2C(=O)[C@@H](c2cc(OCCN3CCC(CN4CC(Oc5cc(N6C7CCC6CN(c6cc(-c8ccccc8O)nnc6N)C7)ccn5)C4)CC3)no2)C(C)C)cc1` [compound 406, (2S,4R)-1-((2R)-2-(3-(2-(4-((3-((4-(3-(3-amino-6-(2-hydroxyphenyl)pyridazin-4-yl)-3,8-diazabicyclo[3.2.1]octan-8-yl)pyridin-2-yl)oxy)azetidin-1-yl)methyl)piperidin-1-yl)ethoxy)isoxazol-5-yl)-3-methylbutanoyl)-4-hydroxy-N-((S)-1-(4-(4-methylthiazol-5-yl)phenyl)ethyl)pyrrolidine-2-carboxamide], for which the 50% degradation concentration (DC50) (degradation of BRM) was above 30 nM.

Take `Cc1ncsc1-c1ccc([C@H](C)NC(=O)[C@@H]2C[C@@H](O)CN2C(=O)[C@H](c2cc(OCCN3CCN(CCO[C@H]4C[C@H](Oc5cc(N6C7CCC6CN(c6cc(-c8ccccc8O)nnc6N)C7)ccn5)C4)CC3)no2)C(C)C)cc1` [compound 407, (2S,4R)-1-((2S)-2-(3-(2-(4-(2-((1r,3r)-3-((4-(3-(3-amino-6-(2-hydroxyphenyl)pyridazin-4-yl)-3,8-diazabicyclo[3.2.1]octan-8-yl)pyridin-2-yl)oxy)cyclobutoxy)ethyl)piperazin-1-yl)ethoxy)isoxazol-5-yl)-3-methylbutanoyl)-4-hydroxy-N-((S)-1-(4-(4-methylthiazol-5-yl)phenyl)ethyl)pyrrolidine-2-carboxamide]: the DC50 (degradation of BRM) was above 30 nM.
